We go through two compounds from publication PMC10439028, “SGLT5 is the renal transporter for 1,5-anhydroglucitol, a major player in two rare forms of neutropenia” (Cellular and Molecular Life Sciences: CMLS, 2023).

Entries after “also recorded” stand apart in the source; their conditions may differ.

This assay addresses T1, human SGLT4 (Homo sapiens, UniProt Q2M3M2).
T1 construct: expressed in transfected cells
T1 sequence (Q2M3M2 1-681): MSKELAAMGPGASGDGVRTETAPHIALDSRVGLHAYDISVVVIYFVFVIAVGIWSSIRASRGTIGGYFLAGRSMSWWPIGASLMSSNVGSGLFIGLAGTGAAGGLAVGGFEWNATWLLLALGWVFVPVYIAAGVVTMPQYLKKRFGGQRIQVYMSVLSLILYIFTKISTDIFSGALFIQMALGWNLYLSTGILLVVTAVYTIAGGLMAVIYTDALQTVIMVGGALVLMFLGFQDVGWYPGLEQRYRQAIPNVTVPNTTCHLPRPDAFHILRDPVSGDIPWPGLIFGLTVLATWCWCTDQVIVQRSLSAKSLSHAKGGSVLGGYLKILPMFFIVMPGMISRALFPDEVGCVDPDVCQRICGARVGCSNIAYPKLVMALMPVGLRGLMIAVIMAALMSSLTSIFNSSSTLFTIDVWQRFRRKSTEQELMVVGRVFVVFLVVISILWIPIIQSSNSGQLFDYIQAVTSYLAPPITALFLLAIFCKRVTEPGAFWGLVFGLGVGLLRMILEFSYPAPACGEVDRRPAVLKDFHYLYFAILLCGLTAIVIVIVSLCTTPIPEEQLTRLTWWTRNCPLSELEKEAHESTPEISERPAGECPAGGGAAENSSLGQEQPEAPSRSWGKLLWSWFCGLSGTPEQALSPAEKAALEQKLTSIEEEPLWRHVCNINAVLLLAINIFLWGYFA
Kind of assay: Radioactive uptake assay (saturation kinetics) in HEK293T cells stably overexpressing human SGLT4. Format: cell-based. The text has this: This assay was used to study (1) the transport of 1,5-AG or mannose by the HEK293T model cell lines that stably overexpressed the various transporters or by the transiently transfected HEK293T cells using JetPEI® as a transfection agent prepared as described above and (2) the substrate specificity of each transporter.
For a typical transporter experiment we proceeded as follows. […] To minimize cell loss during the various washing steps in the radioactive uptake experiments, the wells where the cells were seeded were previously coated with poly- D-lysine, which improved their adhesion to the plastic surface of the wells. For this, each well of the 24-well plates was treated with 200 µl of a 0.01% poly-L-lysine solution for 10 min, washed 3 times with 1 ml of sterilized water and left to dry for 2 h. Only then could the 24-well plates be seeded with the appropriate cell lines and cultured overnight at 37 °C in 5% CO2.
On day two, the radioactive uptake assay could be performed. The cell culture media was removed by aspiration and cells were incubated for 20 min at 37 °C and 5% CO2 with a basal medium (10 mM HEPES, pH 7.4, 1 mM CaCl2, 1 mM MgCl2, 2 mM KCl) containing 140 mM choline chloride to deplete intracellular […] ions. This was subsequently replaced with the uptake medium (basal medium + 140 mM NaCl, 25 μM cytochalasin B, 1 mg/ml BSA) containing either radioactive U-[^14C]-mannose (15,000 cpm/well) or 2-[^3H]-1,5-AG (30,000 cpm/well) and respectively, non-radioactive mannose or 1,5-AG, at the required concentration in the experiment. […]
Once the uptake medium was added to the cells, the plates were incubated at 37 °C in 5% CO2 during the required time. […] In each experiment, the transport activities were calculated after subtracting a “blank” value, corresponding to the radioactivity in the appropriate control cells (HEK293T cells that were stably or transiently transfected with one of the parent plasmids pEF6/MycHisA, pEF6HisB, pUB82 or pUB83 with no inserted cDNA) that were analyzed in parallel.

For `OC[C@H]1OC[C@H](O)[C@@H](O)[C@@H]1O` [1,5-AG, 1,5-anhydroglucitol], the “transport of 1,5-AG by human SGLT4” value (concentrations in the physiological range) is listed as “does not transport; also recorded: undetectable”.

With `OC[C@H]1OC(O)[C@@H](O)[C@@H](O)[C@@H]1O` (stereo partly drawn) [Mannose, mannose], the “SGLT4 better than SGLT5 to transport mannose” value (assuming similar expression of the transporters in the cell lines) is “approximately tenfold better”. In addition, the “hSGLT4 Vmax” value (transport of the labelled substrate, Fig. 2B) turned out to be 16.6 ± 0.5 pmol/min/10^5 cells.
